For one experiment, the system named is OCI-LY10 cells. In words: Cell proliferation assay (MTS) in OCI-LY10 cells. Type of experiment: cell-based. The conditions noted are these: Homo sapiens, OCI-Ly10, 72 h, read-out: OCI-LY10 IC50 (nM). The text has this:
MTS testing kit was purchased from Promega (Madison, Wis., USA). The RPMI-1640, Fetal bovine serum and Penicillin-Streptomycin were purchased from BI (Biological Industries, Beit Haemek, Israel). Dimethyl sulfoxide (DMSO) was purchased from Sigma (St. Louis., Mo., USA). […] To investigate whether a compound is able to inhibit the activity of BTK in cells, a mechanism-based assay using OCI-LY10 cells was developed. In this assay, inhibition of BTK was detected by the inhibition of OCI-LY10 cells proliferation. Cells were plated into 96-well plates at a density of 10000 cells/well. Plates were incubated at 37° C., with 5% CO2 for 4 h. […] Plates were incubated at 37° C., with 5% CO2 for 72 h. 20 μl MTS was added into each well and the plates were incubated at 37° C., with 5% CO2 for exactly 2 h. The absorbance was measured by a microplate reader at 490 nm. IC50 was calculated using GraphPad Prism 5.0 software. Select compounds prepared as described above were assayed according to the biological procedures described herein.
As for `COc1ccc(F)cc1C(=O)NCc1ccc(-c2nn(C3CCCC3)c3c(=O)[nH]nc(N)c23)cc1F` [Example 62, N-(4-(4-amino-1-cyclopentyl-7-oxo-6,7-dihydro-1H-pyrazolo[3,4-d]pyridazin-3-yl)-2-fluorobenzyl)-5-fluoro-2-methoxybenzamide], the IC50 (usually the concentration needed to halve the response being measured) turned out to be 1 nM.

The experiment is the same for the next values; noted with them: Homo sapiens; inhibition of OCI-LY10 cells proliferation, 72 h incubation, MTS, absorbance at 490 nm; read-out: OCI-LY10 IC50.
Take `COc1ccc(F)cc1C(=O)NCc1ccc(-c2cn(C(C)C(F)(F)F)c3c(=O)[nH]nc(N)c23)cc1F` (stereo not drawn) [Example 53, N-(4-(4-amino-7-oxo-1-(1,1,1-trifluoropropan-2-yl)-6,7-dihydro-1H-pyrrolo[2,3-d]pyridazin-3-yl)-2-fluorobenzyl)-5-fluoro-2-methoxybenzamide]: the 50% inhibitory concentration (IC50) worked out at 3 nM.

Consider `COc1ccc(F)cc1C(=O)NCc1ccc(-c2cn(C3CC(F)(F)C3)c3c(=O)[nH]nc(N)c23)cc1` [Example 54, N-(4-(4-amino-1-(3,3-difluorocyclobutyl)-7-oxo-6,7-dihydro-1H-pyrrolo[2,3-d]pyridazin-3-yl)benzyl)-5-fluoro-2-methoxybenzamide], for which the IC50 was determined as 1 nM.

`COc1ccc(F)cc1C(=O)NCc1ccc(-c2cn(C3CC(F)(F)C3)c3c(=O)[nH]nc(N)c23)cn1` [Example 55]: the IC50 worked out at 28 nM.

Consider `COc1ccc(F)cc1C(=O)NCc1ccc(-c2cn(C3CC(F)(F)C3)c3c(=O)[nH]nc(N)c23)cc1F` [Example 56, N-(4-(4-amino-1-(3,3-difluorocyclobutyl)-7-oxo-6,7-dihydro-1H-pyrrolo[2,3-d]pyridazin-3-yl)-2-fluorobenzyl)-5-fluoro-2-methoxybenzamide], for which the concentration for half-maximal inhibition (IC50) is 3 nM.

As to `COc1ccc(F)cc1C(=O)NCc1ccc(-c2cn([C@@H]3C[C@@H]3F)c3c(=O)[nH]nc(N)c23)cc1` [Example 57, N-(4-(4-amino-1-((1R,2S)-2-fluorocyclopropyl)-7-oxo-6,7-dihydro-1H-pyrrolo[2,3-d]pyridazin-3-yl)benzyl)-5-fluoro-2-methoxybenzamide], the concentration for half-maximal inhibition (IC50) turned out to be 24 nM.

On to `COc1ccc(F)cc1C(=O)NCc1ccc(-c2cn([C@@H]3C[C@@H]3F)c3c(=O)[nH]nc(N)c23)cc1F` [Example 59, N-(4-(4-amino-1-((1R,2S)-2-fluorocyclopropyl)-7-oxo-6,7-dihydro-1H-pyrrolo[2,3-d]pyridazin-3-yl)-2-fluorobenzyl)-5-fluoro-2-methoxybenzamide], for which the half-inhibitory concentration (IC50) turned out to be 62 nM.

As to `COc1ccc(F)cc1C(=O)NCc1ccc(-n2c(=O)n(C3CCCC3)c3c(=O)[nH]nc(N)c32)cc1` [Example 60, N-(4-(7-amino-3-cyclopentyl-2,4-dioxo-2,3,4,5-tetrahydro-1H-imidazo[4,5-d]pyridazin-1-yl)benzyl)-5-fluoro-2-methoxybenzamide], the IC50 stood at 30 nM.

Take `COc1ncc(F)cc1C(=O)NCc1ccc(-c2nn(C3CCCC3)c3c(=O)[nH]nc(N)c23)cc1` [Example 61, N-(4-(4-amino-1-cyclopentyl-7-oxo-6,7-dihydro-1H-pyrazolo[3,4-d]pyridazin-3-yl)benzyl)-5-fluoro-2-methoxynicotinamide]: the IC50 was found to be 15 nM.

Turning to `COc1ccc(F)cc1C(=O)NCc1ccc(-c2nn(C3CCCC3)c3c(=O)[nH]nc(N)c23)c(F)c1` [Example 63, N-(4-(4-amino-1-cyclopentyl-7-oxo-6,7-dihydro-1H-pyrazolo[3,4-d]pyridazin-3-yl)-3-fluorobenzyl)-5-fluoro-2-methoxybenzamide], the concentration for half-maximal inhibition (IC50) was 1 nM.

Take `COc1ccc(F)cc1C(=O)NCc1ccc(-c2nn([C@H]3CCCC3(F)F)c3c(=O)[nH]nc(N)c23)cc1` [Example 64, (S)-N-(4-(4-amino-1-(2,2-difluorocyclopentyl)-7-oxo-6,7-dihydro-1H-pyrazolo[3,4-d]pyridazin-3-yl)benzyl)-5-fluoro-2-methoxybenzamide]: the half-maximal inhibitory concentration (IC50) worked out at 1 nM.

Regarding `COc1ccc(F)cc1C(=O)NCc1ccc(-c2nn(C3CCC3)c3c(=O)[nH]nc(N)c23)cc1` [Example 65, N-(4-(4-amino-1-cyclobutyl-7-oxo-6,7-dihydro-1H-pyrazolo[3,4-d]pyridazin-3-yl)benzyl)-5-fluoro-2-methoxybenzamide], the IC50 turned out to be 1 nM.

For the compound `COc1ccc(F)cc1C(=O)NCc1ccc(-c2nn(C(C)(C)C)c3c(=O)[nH]nc(N)c23)cc1` [Example 66, N-(4-(4-amino-1-(tert-butyl)-7-oxo-6,7-dihydro-1H-pyrazolo[3,4-d]pyridazin-3-yl)benzyl)-5-fluoro-2-methoxybenzamide], the 50% inhibitory concentration (IC50) worked out at 1 nM.

On to `CCC(C)n1nc(-c2ccc(CNC(=O)c3cc(F)ccc3OC)cc2)c2c(N)n[nH]c(=O)c21` (stereo not drawn) [Example 67, N-(4-(4-amino-1-(sec-butyl)-7-oxo-6,7-dihydro-1H-pyrazolo[3,4-d]pyridazin-3-yl)benzyl)-5-fluoro-2-methoxybenzamide], for which the IC50 is 1 nM.

On to `COc1ccc(F)cc1C(=O)NCc1ccc(-c2nn(C(C)C)c3c(=O)[nH]nc(N)c23)cc1` [Example 68, N-(4-(4-amino-1-isopropyl-7-oxo-6,7-dihydro-1H-pyrazolo[3,4-d]pyridazin-3-yl)benzyl)-5-fluoro-2-methoxybenzamide], for which the half-maximal inhibitory concentration (IC50) amounted to 2 nM.

Regarding `COc1ccc(F)cc1C(=O)NCc1ccc(-c2nn(C(C)C(C)C)c3c(=O)[nH]nc(N)c23)cc1` (stereo not drawn) [Example 69, N-(4-(4-amino-1-(3-methylbutan-2-yl)-7-oxo-6,7-dihydro-1H-pyrazolo[3,4-d]pyridazin-3-yl)benzyl)-5-fluoro-2-methoxybenzamide], the half-maximal inhibitory concentration (IC50) is 5 nM.

With `COc1ccc(F)cc1C(=O)NCc1ccc(-c2nn(C(C)C(C)(C)C)c3c(=O)[nH]nc(N)c23)cc1` (stereo not drawn) [Example 70, N-(4-(4-amino-1-(3,3-dimethylbutan-2-yl)-7-oxo-6,7-dihydro-1H-pyrazolo[3,4-d]pyridazin-3-yl)benzyl)-5-fluoro-2-methoxybenzamide], the IC50 is 1 nM.

With `COc1ncc(F)cc1C(=O)NCc1ccc(-c2cn(C3CCCC3)c3c(=O)[nH]nc(N)c23)cc1` [Example 71, N-(4-(4-amino-1-cyclopentyl-7-oxo-6,7-dihydro-1H-pyrrolo[2,3-d]pyridazin-3-yl)benzyl)-5-fluoro-2-methoxynicotinamide], the IC50 came to 23 nM.

Turning to `COc1ccc(F)cc1C(=O)NCc1ccc(-c2nn([C@@H]3CCCC3(F)F)c3c(=O)[nH]nc(N)c23)cc1` [Example 72, (R)-N-(4-(4-amino-1-(2,2-difluorocyclopentyl)-7-oxo-6,7-dihydro-1H-pyrazolo[3,4-d]pyridazin-3-yl)benzyl)-5-fluoro-2-methoxybenzamide], the 50% inhibitory concentration (IC50) came out at 1 nM.

Regarding `COc1ccc(F)cc1C(=O)NCc1ccc(-c2nn(C3(C)CCC3)c3c(=O)[nH]nc(N)c23)cc1` [Example 73, N-(4-(4-amino-1-(1-methylcyclobutyl)-7-oxo-6,7-dihydro-1H-pyrazolo[3,4-d]pyridazin-3-yl)benzyl)-5-fluoro-2-methoxybenzamide], the IC50 turned out to be 1 nM.

Turning to `COc1ccc(F)cc1C(=O)NCc1ccc(-c2nn(C3(C)CC3)c3c(=O)[nH]nc(N)c23)cc1` [Example 74, N-(4-(4-amino-1-(1-methylcyclopropyl)-7-oxo-6,7-dihydro-1H-pyrazolo[3,4-d]pyridazin-3-yl)benzyl)-5-fluoro-2-methoxybenzamide], the half-inhibitory concentration (IC50) is 1 nM.

Take `COc1ccc(F)cc1C(=O)NCc1ccc(-c2nn(C(C)CF)c3c(=O)[nH]nc(N)c23)cc1` (stereo not drawn) [Example 75, N-(4-(4-amino-1-(1-fluoropropan-2-yl)-7-oxo-6,7-dihydro-1H-pyrazolo[3,4-d]pyridazin-3-yl)benzyl)-5-fluoro-2-methoxybenzamide]: the half-maximal inhibitory concentration (IC50) came out at 12 nM.

As to `COc1ccc(F)cc1C(=O)NCc1ccc(-c2nn(C(C)C(F)F)c3c(=O)[nH]nc(N)c23)cc1` (stereo not drawn) [Example 76, N-(4-(4-amino-1-(1,1-difluoropropan-2-yl)-7-oxo-6,7-dihydro-1H-pyrazolo [3,4-d]pyridazin-3-yl)benzyl)-5-fluoro-2-methoxybenzamide], the IC50 stood at 1 nM.

For `COc1ccc(F)cc1C(=O)NCc1ccc(-c2nn([C@H](C)C3CC3)c3c(=O)[nH]nc(N)c23)cc1` [Example 77a, (R)-N-(4-(4-amino-1-(1-cyclopropylethyl)-7-oxo-6,7-dihydro-1H-pyrazolo[3,4-d]pyridazin-3-yl)benzyl)-5-fluoro-2-methoxybenzamide], the half-inhibitory concentration (IC50) amounted to 1 nM.

As to `COc1ccc(F)cc1C(=O)NCc1ccc(-c2nn([C@@H](C)C3CC3)c3c(=O)[nH]nc(N)c23)cc1` [Example 77b, (S)-N-(4-(4-amino-1-(1-cyclopropylethyl)-7-oxo-6,7-dihydro-1H-pyrazolo[3,4-d]pyridazin-3-yl)benzyl)-5-fluoro-2-methoxybenzamide], the 50% inhibitory concentration (IC50) came out at 1 nM.

For `COc1ccc(F)cc1C(=O)NCc1ccc(-c2nn(C(CO)C(F)(F)F)c3c(=O)[nH]nc(N)c23)cc1` (stereo not drawn) [Example 78, N-(4-(4-amino-7-oxo-1-(1,1,1-trifluoro-3-hydroxypropan-2-yl)-6,7-dihydro-1H-pyrazolo[3,4-d]pyridazin-3-yl)benzyl)-5-fluoro-2-methoxybenzamide], the half-inhibitory concentration (IC50) is 26 nM.

Turning to `COc1cc(F)c(F)cc1C(=O)NCc1ccc(-c2cn(C3CCCC3)c3c(=O)[nH]nc(N)c23)cc1` [Example 79, N-(4-(4-amino-1-cyclopentyl-7-oxo-6,7-dihydro-1H-pyrrolo[2,3-d]pyridazin-3-yl)benzyl)-4,5-difluoro-2-methoxybenzamide], the IC50 came out at 50 nM.

Values taken from patent US20230145305A1, “COMPOUNDS USEFUL AS KINASE INHIBITORS” (Fochon Biosciences, Ltd., priority 2020, published 2023).
